Data: US10696692B2, “Amido-benzyl sulfone and sulfoxide derivates” (Forma TM, LLC, priority 2012, dated 2020)
Where two headings read alike, the source gives them in different places.

What was measured:
A2780 cells = experiment: Assay 2: In-Vitro Cell Proliferation Assay (A2780 cells, SRB readout, 72 hours); type: cell-based; details: A2780 cells, 72 hours, SRB, read-out: Cell Proliferation (IC50);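 further: viable cells counted via sulforhodamine B staining, absorbance at 570 nm, after 72 h exposure at 37 °C, DMSO 0.1% as control, media-only background subtracted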
NAMPT = NAMPT (Homo sapiens (Human), UniProt P43490); experiment: Assay 1: Biochemical Inhibition Assay (NAMPT enzymatic reaction, NMN quantified by mass spectrometry); details: read-out: Biochemical (IC50);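 further: recombinant His-tagged human NAMPT preincubated with compound 15 min, then reacted 30 min at rt with 1 µM NAM, 100 µM PRPP, 2.5 mM ATP, NMN product read by RapidFire MS, normalized to L-Cystathionine internal standard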
NAMPT, sequence (P43490 whole entry): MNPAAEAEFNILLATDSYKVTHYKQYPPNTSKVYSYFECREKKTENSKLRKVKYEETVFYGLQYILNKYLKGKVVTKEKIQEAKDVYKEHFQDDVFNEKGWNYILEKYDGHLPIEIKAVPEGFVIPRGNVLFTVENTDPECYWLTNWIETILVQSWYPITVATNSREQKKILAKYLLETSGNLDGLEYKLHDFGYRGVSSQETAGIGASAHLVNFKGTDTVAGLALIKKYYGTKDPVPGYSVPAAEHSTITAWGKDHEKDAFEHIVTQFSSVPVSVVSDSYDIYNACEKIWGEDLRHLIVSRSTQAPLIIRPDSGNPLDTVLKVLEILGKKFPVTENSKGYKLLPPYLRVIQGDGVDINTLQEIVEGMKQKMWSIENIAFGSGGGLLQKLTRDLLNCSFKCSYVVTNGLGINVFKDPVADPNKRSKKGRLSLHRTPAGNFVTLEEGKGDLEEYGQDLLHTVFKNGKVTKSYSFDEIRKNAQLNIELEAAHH

SMILES	IC50 (A2780 cells; Homo sapiens, A2780, 72 h)	IC50 (NAMPT)	IC50 (A2780 cells)
O=C(NCc1ccc(S(=O)(=O)N2C[C@@H]3C[C@H]2CO3)cc1)c1ccc2nccn2c1 [Example 84, Imidazo[1,2-a]pyridine-6-carboxylic acid 4-[(1S,4S)-(2-oxa-5-aza-bicyclo[2.2.1]hept-5-yl)sulfonyl]-benzylamide]	16.6 nM	37.4 nM	
O=C(NCc1ccc(S(=O)(=O)C2CCN(S(=O)(=O)c3ccccc3)C2)cc1)c1cnc2[nH]ncc2c1 (stereo not drawn) [Example 346, N-[[4-[1-(benzenesulfonyl)pyrrolidin-3-yl]sulfonylphenyl]methyl]-1H-pyrazolo[3,4-b]pyridine-5-carboxamide]	198 nM	102 nM	
O=C(NCc1ccc(S(=O)(=O)[C@H]2CCOC2)cc1)c1cnc2nccn2c1 [Example 222, N-[[4-[(3S)-tetrahydrofuran-3-yl]sulfonylphenyl]methyl] imidazo[1,2-a]pyrimidine-6-carboxamide]	423 nM	9.77 nM	
O=C(NCc1ccc(S(=O)(=O)N2CC3CCC(C2)O3)cc1)c1cnc2nccn2c1 [Example 26, Imidazo[1,2-a]pyrimidine-6-carboxylic acid 4-(8-oxa-3-aza-bicyclo[3.2.1]octane-3-sulfonyl)-benzylamide]	135 nM	4.6 nM	
O=C(NCc1ccc(S(=O)(=O)N2CC3CCNC3C2)cc1)c1ccc2nccn2c1 (stereo not drawn) [Example 332, N-[[4-(2,3,3a,4,6,6a-hexahydro-1H-pyrrolo[3,4-b]pyrrol-5-ylsulfonyl)phenyl]methyl] imidazo[1,2-a]pyridine-6-carboxamide]	171 nM	174 nM	
O=C(NCc1ccc(S(=O)(=O)C2CCN(C3CCOCC3)CC2)cc1)c1ccc2nccn2c1 [Example 214, N-[[4-[(1-tetrahydropyran-4-yl-4-piperidyl)sulfonyl]phenyl]methyl]imidazo[1,2-a] pyridine-6-carboxamide]	4.73 nM	13.6 nM	
O=C(NCc1ccc(S(=O)(=O)N2CC3CNCC3C2)cc1)c1ccc2nccn2c1 (stereo not drawn) [Example 329, N-[[4-(2,3,3a,4,6,6a-hexahydro-1H-pyrrolo[3,4-c]pyrrol-5-yIsulfonyl)phenyl]methyl] imidazo[1,2-a]pyridine-6-carboxamide]	93.3 nM	79.3 nM	
O=C(NCc1ccc(S(=O)(=O)N2CC3CC(F)(F)CC3C2)cc1)c1cnc2[nH]ncc2c1 (racemic) [Example 177, cis-1H-Pyrazolo[3,4-b]pyridine-5-carboxylic acid 4-(5,5-difluoro-hexahydro-cyclopenta[c]pyrrole-2-sulfonyl)-benzylamide]	105 nM	20.3 nM	
O=C(NCc1ccc(S(=O)(=O)N2CCOC3CNCC32)cc1)c1ccc2nccn2c1 (stereo not drawn) [Example 335, N-[[4-(3,4a,5,6,7,7a-hexahydro-2H-pyrrolo[3,4-b][1,4]oxazin-4-ylsulfonyl)phenyl)methyl] imidazo[1,2-a]pyridine-6-carboxamide]		965 nM	2000 nM
CC(C)(C)OC(=O)N1CC2CN(S(=O)(=O)c3ccc(CNC(=O)c4ccc5nccn5c4)cc3)CC(C1)O2 (racemic) [Example 133, cis-7-(4-{[(Imidazo[1,2-a]pyridine-6-carbonyl)-amino]-methyl}-benzenesulfonyl)-9-oxa-3,7-diaza-bicyclo[3.3.1]nonane-3-carboxylic acid tert-butyl ester]	96.9 nM	330 nM	
CC(C)(C)OC(=O)N1CCC2(CCCN(S(=O)(=O)c3ccc(CNC(=O)c4ccc5nccn5c4)cc3)C2)C1 (racemic) [Example 102, 7-(4-{[(Imidazo[1,2-a]pyridine-6-carbonyl)-amino]-methyl}-benzenesulfonyl)-2,7-diaza-spiro[4.5]decane-2-carboxylic acid tert-butyl ester]	5.1 nM	34.5 nM	
O=C(NCc1ccc(S(=O)(=O)[C@H]2CCOC2)cc1)c1cc2ccncc2o1 [Example 230, N-[[4-[(3S)-tetrahydrofuran-3-yl]sulfonylphenyl]methyl]furo [2,3-c]pyridine-2-carboxamide]	243 nM	73.8 nM	
